# Measured values: patent publication US12410157B2, “Compound useful as toll-like receptor 7 activation inhibitor” (TOYAMA PREFECTURAL UNIVERSITY, priority 2020, dated 2025)
# Where a name gives a salt, the structure may show the parent alone. Read-outs that look alike come from different tables or passages of the source.
# Experiments:
# [1] = target: T1, mouse TLR7 (Mus musculus, UniProt P58681); test: Inhibition of TLR7 activation in mouse TLR7-expressing NF-κB-GFP reporter Ba/F3 cells; type: cell-based; settings: for TLR7 activation inhibitory activity, comparison in words: from IC50 of Table 3 / Table 5
# T1 construct: expressed in transfected cells; host or cells: Ba/F3 cells (provided by Prof. Kensuke Miyake, University of Tokyo)
# T1 sequence (P58681 27-1050): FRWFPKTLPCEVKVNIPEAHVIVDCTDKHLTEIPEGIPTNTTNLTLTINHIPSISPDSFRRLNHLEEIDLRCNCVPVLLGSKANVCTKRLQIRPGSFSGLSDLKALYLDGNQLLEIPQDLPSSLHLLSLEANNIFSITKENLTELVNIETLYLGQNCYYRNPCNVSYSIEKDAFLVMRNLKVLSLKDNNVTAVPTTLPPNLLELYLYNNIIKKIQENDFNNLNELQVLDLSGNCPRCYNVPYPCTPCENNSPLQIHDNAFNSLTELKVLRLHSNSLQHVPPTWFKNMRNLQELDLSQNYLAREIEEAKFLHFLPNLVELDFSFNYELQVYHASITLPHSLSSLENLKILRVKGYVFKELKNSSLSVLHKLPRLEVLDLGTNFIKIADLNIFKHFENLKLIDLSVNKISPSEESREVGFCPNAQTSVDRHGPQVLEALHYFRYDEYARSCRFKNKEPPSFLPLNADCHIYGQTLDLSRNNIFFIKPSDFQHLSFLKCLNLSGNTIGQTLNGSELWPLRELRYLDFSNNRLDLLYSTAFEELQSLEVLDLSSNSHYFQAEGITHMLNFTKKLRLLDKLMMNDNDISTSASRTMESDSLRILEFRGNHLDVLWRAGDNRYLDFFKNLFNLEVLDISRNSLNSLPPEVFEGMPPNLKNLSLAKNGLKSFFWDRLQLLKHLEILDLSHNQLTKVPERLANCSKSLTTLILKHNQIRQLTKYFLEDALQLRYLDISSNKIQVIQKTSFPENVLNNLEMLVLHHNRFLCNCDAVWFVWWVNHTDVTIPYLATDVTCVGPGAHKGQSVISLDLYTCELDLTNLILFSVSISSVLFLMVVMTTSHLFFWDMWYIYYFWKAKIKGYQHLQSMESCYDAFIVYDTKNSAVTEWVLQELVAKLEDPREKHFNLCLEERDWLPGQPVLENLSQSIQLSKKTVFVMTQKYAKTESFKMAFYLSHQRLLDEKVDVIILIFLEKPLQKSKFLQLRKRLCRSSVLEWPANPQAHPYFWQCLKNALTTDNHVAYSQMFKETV
# From the text: Mouse TLR7-expressing reporter cells (Ba/F3 cells) were used to evaluate inhibition of TLR7 activation in each derivative and CB-7. These cells were provided by Professor Kensuke Miyake (Department of Infection Genetics, Institute of Medical Science, University of Tokyo). These cells have been transfected with a reporter gene that connects GFP gene downstream of the promoter region of NF-κB. Therefore, the expression of GFP is enhanced by the addition of a ligand for TLR7 expressed by the cells. The fluorescence intensity of GFP was attenuated by the addition of each derivative, and the inhibition of TLR7 activation by each derivative was evaluated as an indicator.
# Loxoribine (Alexis Biochemicals) was used as the ligand for mouse TLR7. Gardiquimod (Invivogen) was used as the ligand for human TLR7.
# Ba/F3 cells cultured in RPMI 1640 medium containing 10% (v/v) fetal calf serum (FCS), 50 U/mL penicillin, 50 μg/mL streptomycin, 2 mM L-glutamine, […] 2-mercaptoethanol, 1 ng/mL interleukin-3 were aliquoted into 96-well plates so that the number of cells per well was 1.0×10^5 cells/100 μL. 50 μL of each derivative or CB-7, prepared to final concentrations of 1, 5, 10, 25, 50, and 100 µM, was added to each well. 96-well plates were incubated at 37° C. for 30 minutes in the presence of 5% CO2. Next, 250 μg/mL Roxoribin was added to each well and incubated for 18 hours. At the end of incubation, cells were washed with PBS (FACS buffer) containing 2.5% (v/v) FCS and suspended in 200 μL of FACS buffer containing 25 μg/mL […] for each cell. GFP fluorescence intensities of the cells were analyzed by flow cytometry. Flow cytometry measurement was performed on a FACSCanto™ II (Becton Dickinson) and data were analyzed with FlowJo software (Tree Star). The MFI (%) upon stimulation with roxoribin in the presence of […] derivatives or CB-7 was calculated using the MFI upon stimulation with roxoribin alone as 100%, and then IC50 (chemical compound concentration that inhibits activity by 50%) was calculated by logistic regression analysis.
# The evaluation of the TLR7 activation inhibition by B2-24-4-5A·HCOOH was performed by the method described in Example 2. CB-7 and B2-24-4·HCl were used as controls.
# [2] = test system: Cytochrome P450 (CYP), mouse liver microsomes; test: Metabolic stability (CYP) using mouse liver microsomes, HPLC; type: in vitro ADME; settings: for Number of peaks detected by HPLC: 0.1 mg/mL, 37° C., 30 minutes or 2 hours; for Drug metabolism mainly by CYPs compared to CB-7: words
# Procedure: For CB-7, B2-24, and B2-5A, 10 mg/mL DMSO solution was used. Each chemical compound was diluted with acetonitrile to 0.1 mg/mL, which was used as the analytical standard. Mouse liver microsomal fractions were rapidly thawed in a warm bath at 37° C. and kept on ice. Reaction buffer containing CYP cofactor was prepared on ice and mixed with the microsomal fractions. The reaction solution was preincubated at 37° C. for 5 minutes, and then the test substance solution was added and mixed well by pipetting. The volume of the reaction solution was 200 μL and the final concentration of the test substance was 0.1 mg/mL. The reaction solution was incubated at 37° C. for 30 minutes or 2 hours, and the reaction was stopped by adding 3 times the volume of acetonitrile and vortexing. After the reaction was stopped, the samples were centrifuged, and each supernatant was separated and dried in an evaporator. 50 μL of 50% acetonitrile solution was added to each solidified sample, and each sample was re-dissolved by vortexing for 5 minutes. Each redissolved solution was centrifuged, and each supernatant was subjected to HPLC analysis using a HITACHI Lachrom ELITE (HITACHI) as a HPLC system and COSMOSIL 5C18-MS-II, 4.6 mmI.D.×150 mm (nacalai tesque Co.) as a column.
# Metabolic stability analysis of CB-7 and B2-24-4-5A·HCOOH was performed by the method of Example 5.
# [3] = Example 2, Ba/F3 reporter cells, loxoribine stimulation 18 hours, GFP MFI, read-out: IC50 of CB-7 derivatives with modified Areas a and b
SMILES,"IC50 [1, 3] [nM]","TLR7 activation inhibitory activity, comparison in words [1]",other results
C=C(C)[C@@H]1CCC(O)(CN(C)C)C[C@H]1c1ccc(OC)cc1 (stereo partly shown) [B2-2A],> 100000,–,–
C=C(C)[C@@H]1CCC(O)(CNS(C)(=O)=O)C[C@H]1c1ccc(OC)cc1 (stereo partly shown) [B2-3A],> 10000,–,–
C=C(C)[C@@H]1CC[C@]2(COC(=O)C2)C[C@H]1c1ccc2ccccc2c1 [B2-5A-1],> 100000,–,–
C=C(C)[C@@H]1CC[C@]2(COC(=O)C2)C[C@H]1c1ccc(COCCOC)cc1 [B2-5A-4],2570,higher TLR7 activation inhibitory activity than CB-7,–
C=C(C)[C@@H]1CC[C@]2(COC(=O)C2)C[C@H]1c1ccc(CN(CC)CC)cc1 [B2-5A-6],210,higher TLR7 activation inhibitory activity than CB-7,–
C=C(C)[C@@H]1CC[C@](CC(=O)O)(C(=O)OC)C[C@H]1c1ccc(OCCCO)cc1 [B2-5A-7-1],> 10000,–,–
C=C(C)[C@@H]1CC[C@]2(COC(=O)C2)C[C@H]1c1ccc(OCCCO)cc1 [B2-5A-7],2500,higher TLR7 activation inhibitory activity than CB-7,–
C=C(C)[C@@H]1CC[C@]2(COC(=O)C2)C[C@H]1c1ccc(CN2CCCC2)cc1 [B2-5A-9],300,higher TLR7 activation inhibitory activity than CB-7,–
C=C(C)[C@@H]1CC[C@]2(COC(=O)C2)C[C@H]1c1ccc(OC)cc1 [B2-5A],2430,higher TLR7 activation inhibitory activity than CB-7,Predicted metabolic modifications (CYP) ([2]; Example 3): +O; Number of peaks detected by HPLC ([2]; Example 3): 4; Drug metabolism mainly by CYPs compared to CB-7 [2]: improved drug metabolism mainly by CYPs compared to CB-7
C=C(C)[C@@H]1CC[C@@](COC)(CC(=O)O)C[C@H]1c1ccc(OC)cc1 [B2-5B],> 100000,–,–
C=C(C)[C@@H]1CC[C@@](CO)(CC(=O)N2CCOCC2)C[C@H]1c1ccc(OC)cc1 [B2-6-7],9360,–,–
C=C(C)[C@@H]1CC[C@@](CO)(CCN(C)C)C[C@H]1c1ccc(OC)cc1 [B2-6A],> 100000,–,–
C=C(C)[C@@H]1CC[C@@](CO)(CC(=O)N(C)C)C[C@H]1c1ccc(OC)cc1 [B2-6],> 100000,–,–
C=C[C@]1(CO)CC[C@@H](C(=C)C)[C@H](c2ccc(Oc3ccccc3)cc2)C1 [B2-21],> 50000,–,–
C=C[C@]1(CO)CC[C@@H](C(=C)C)[C@H](c2ccc(-c3ccc(OC)cc3)cc2)C1 [B2-23],> 100000,–,–
C=C[C@]1(C(=O)OC)CC[C@@H](C(=C)C)[C@H](c2ccc(O)cc2)C1 [B2-27],> 100000,–,–
C=CC[C@]1(CO)CC[C@@H](C(=C)C)[C@H](c2ccc(OCC(C)CO)cc2)C1 (stereo partly shown) [B2-29],1740,higher TLR7 activation inhibitory activity than CB-7,–
C=C(C)[C@@H]1CCC(=O)C[C@H]1c1ccc(OC)cc1 [I-7(Intermediate)],> 100000,–,–

# More lines, main results first:
"IC50 [1, 3] [nM]",SMILES,"TLR7 activation inhibitory activity, comparison in words [1]",other results
910,C=C[C@]1(CO)CC[C@@H](C(=C)C)[C@H](c2ccc(COCCOC)cc2)C1 [B2-13],higher TLR7 activation inhibitory activity than CB-7,–
> 50000,C=C[C@]1(CO)CC[C@@H](C(=C)C)[C@H](c2ccc(-c3ccccc3)cc2)C1 [B2-18],–,–
> 100000,C=C[C@]1(CO)CC[C@@H](C(=C)C)[C@H](c2ccc3ccccc3c2)C1 [B2-19],–,–
310,C=C[C@]1(CC)CC[C@@H](C(=C)C)[C@H](c2ccc(CN(CC)CC)cc2)C1 [B2-22],higher TLR7 activation inhibitory activity than CB-7,–
1050,C=C[C@]1(CO)CC[C@@H](C(=C)C)[C@H](c2ccc(CN3CCC(F)(F)CC3)cc2)C1 [B2-24-1],higher TLR7 activation inhibitory activity than CB-7,–
710,C=C[C@]1(CO)CC[C@@H](C(=C)C)[C@H](c2ccc(CN3CCOCC3)cc2)C1 [B2-24-2],higher TLR7 activation inhibitory activity than CB-7,–
1260,C=C[C@]1(CO)CC[C@@H](C(=C)C)[C@H](c2ccc(CN3CC(F)(F)C3)cc2)C1 [B2-24-3],higher TLR7 activation inhibitory activity than CB-7,–
87,C=C[C@]1(CO)CC[C@@H](C(=C)C)[C@H](c2ccc(CN3CCNCC3)cc2)C1 [B2-24-4•HCl],–,"IC50 ([1]; Example 5, Table 5, method of Example 2, read-out: IC50): 167 nM"
440,C=C[C@]1(CO)CC[C@@H](C(=C)C)[C@H](c2ccc(CN3CCCC3)cc2)C1 [B2-24],higher TLR7 activation inhibitory activity than CB-7,Number of peaks detected by HPLC ([2]; Example 3): 4; Drug metabolism mainly by CYPs compared to CB-7 [2]: improved drug metabolism mainly by CYPs compared to CB-7
1260,C=C[C@]1(CO)CC[C@@H](C(=C)C)[C@H](c2ccc(COCCCO)cc2)C1 [B2-26],higher TLR7 activation inhibitory activity than CB-7,–
1660,C=CC[C@]1(CO)CC[C@@H](C(=C)C)[C@H](c2ccc(OCCCO)cc2)C1 [B2-28],higher TLR7 activation inhibitory activity than CB-7,–
